The values below come from ChEMBL document CHEMBL6121055, “Strategic Mutations in Designer Native Peptides Combat NLRP3 Inflammasome Activation in Neurodegenerative Disorders” (J Med Chem, 2025).

Assay [1] deals with N9. Kind of assay: Inhibition of NLRP3 inflammasome activation mediated in LPS/alpha-synuclein-stimulated mouse N9 cells assessed as increase in mitochondrial membrane potential by flow cytometric analysis. The class given is cell-based. Particulars: dose 5-30 µM.
The subject of assay [2] is N9. Kind of assay: Effect on TNF-alpha mRNA expression in LPS/ATP-stimulated mouse N9 cells at 1 to 100 uM by qRT-PCR analysis. It counts as functional, cell-based. Particulars: dose 1-100 µM. On the technique in general: Real-time PCR tracks product formation cycle by cycle.
Assay [3] concerns N9. Kind of assay: Inhibition of NLRP3 inflammasome activation in LPS/amyloid-beta-stimulated mouse N9 cells assessed as reduction in IL-1beta secretion at 10 to 20 uM preincubated with LPS for 4 hrs followed by compound addition for 30 mins and measured after amyloid-beta stimulation for 16 hrs by ELISA. Particulars: dose 10-20 µM, time 16.5 hrs. It counts as cell-based. In general terms: An ELISA detects its analyte on a solid surface through an enzyme-linked reagent.

Assay [4] concerns N9. As to the kind of experiment: Inhibition of NLRP3 inflammasome activation mediated in LPS/amyloid-beta-stimulated mouse N9 cells assessed as decrease in mitochondrial ROS generation by flow cytometric analysis. The class given is cell-based. The note with it: dose 5-30 µM.
For assay [5], the target named is T1, Apoptosis-associated speck-like protein containing a CARD (Homo sapiens, UniProt Q9ULZ3). Kind of assay: Binding affinity to ASC (unknown origin) assessed as shift in ASC protein band at 0.5 to 2 uM by native PAGE analysis. The note with it: dose 0.5-2 µM.
T1 sequence (Q9ULZ3 whole entry): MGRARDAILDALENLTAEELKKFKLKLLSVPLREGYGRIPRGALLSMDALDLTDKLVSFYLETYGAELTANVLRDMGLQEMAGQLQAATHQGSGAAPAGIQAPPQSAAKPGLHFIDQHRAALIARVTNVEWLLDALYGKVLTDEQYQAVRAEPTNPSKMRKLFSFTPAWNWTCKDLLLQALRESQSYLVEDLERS
The test system of assay [6] is N9. Kind of assay: Inhibition of NLRP3 inflammasome activation mediated pyroptosis in LPS/ATP-stimulated mouse N9 cells assessed as reduction in number of PI-positive cells preincubated with compound and LPS for 4 hrs followed by ATP addition and measured after 24 hrs by calcein AM/PI staining based confocal imaging analysis. The class given is cell-based. Particulars: dose 5-20 µM, time 28.0 hrs.

For assay [7], the target named is T1, Apoptosis-associated speck-like protein containing a CARD. As to the kind of experiment: Binding affinity to Alexa647-labeled ASC (unknown origin) assessed as equilibrium dissociation constant incubated for 30 mins by MST analysis.
Assay [8] in a line: Inhibition of NLRP3 inflammasome activation in LPS/ATP-stimulated mouse N9 cells assessed as inhibition of caspase-1 mRNA expression by qRT-PCR analysis. It counts as cell-based.
Assay [9] deals with N9. As to the kind of experiment: Inhibition of NLRP3 inflammasome activation mediated pyroptosis in LPS/tau-stimulated mouse N9 cells assessed as reduction in cell death at 5 to 30 uM by MTT assay. The class given is cell-based. Particulars: dose 5-30 µM. For orientation: Tetrazolium dyes change colour on reduction, which living cells bring about.
The subject of assay [10] is N9. As to the kind of experiment: Inhibition of NLRP3 inflammasome activation in LPS/ATP-stimulated mouse N9 cells assessed as reduction in IL-1beta secretion at 10 to 20 uM preincubated with LPS for 4 hrs followed by compound addition for 30 mins and measured after ATP stimulation for 45 mins by ELISA. It counts as cell-based. The note with it: dose 10-20 µM, time 75.0 min.

For assay [11], the target named is T1, Apoptosis-associated speck-like protein containing a CARD. As to the kind of experiment: Binding affinity to Alexa647-labeled ASC (unknown origin) assessed as dissociation constant incubated for 5 mins by fluorescence spectra based analysis.
Assay [12] has as its system N9. Kind of assay: Inhibition of NLRP3 inflammasome activation mediated pyroptosis in LPS/ATP-stimulated mouse N9 cells assessed as reduction in cell death preincubated with compound followed by LPS stimulation by MTT assay. It counts as cell-based. The note with it: dose 5-20 µM.

The source made the active and inactive calls. No cut-off for these calls is given here. Residues, ends and D or L forms follow the SMILES beside them.

Turning to `CC[C@H](C)[C@H](NC(=O)[C@H](C)NC(=O)[C@H](C)NC(=O)[C@H](CC(C)C)NC(=O)[C@@H](NC(=O)[C@H](Cc1c[nH]c2ccccc12)NC(=O)[C@@H](N)C(C)C)[C@@H](C)CC)C(=O)N[C@@H](CC(N)=O)C(=O)N[C@@H](CCCNC(=N)N)C(=O)N[C@@H](CCCNC(=N)N)C(=O)O` (H-VWILAAINRR-OH), the inhibition result in [1], in [3], in assay [4], in [6] and in assay [12] was “Dose-dependent-effect” in each case. In addition, in assay [2], the result was inactive. For the same molecule, the outcome in assay [5] was Active. The Kd in [7] was roughly 149 nM; in [11], 58 nM. The IC50 in [8] is 16200 nM. For the same molecule, the inhibition entry in assay [9] and in assay [10] was “Active” each time.

The term Kd denotes a measure of binding affinity in units of concentration. What is called IC50 is the concentration that gives 50% inhibition.
